The target in experiment [1] is T1, glutathione-S-transferase (GST) tagged LXRbeta LBD (ligand binding domain) (Homo sapiens, UniProt P55055).
T1 construct: purchased Invitrogen pv4658
T1 sequence (P55055 222-460 limits assumed): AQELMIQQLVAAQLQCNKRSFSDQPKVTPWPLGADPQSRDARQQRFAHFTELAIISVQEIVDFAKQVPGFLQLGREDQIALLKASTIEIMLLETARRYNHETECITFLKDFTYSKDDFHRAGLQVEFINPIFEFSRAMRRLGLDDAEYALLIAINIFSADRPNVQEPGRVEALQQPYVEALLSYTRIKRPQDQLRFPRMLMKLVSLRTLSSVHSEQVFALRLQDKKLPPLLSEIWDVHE
The experiment can be described thus: LanthaScreen TR-FRET Liver X Receptor Coactivator Assay, LXR beta. As to conditions: for EC50: LXR beta IP, potency (Inflection Point), compound-induced co-activator recruitment, TR-FRET; for Emax: read-out: LXR beta actiivty at max dose, efficacy (% Emax) in relation to reference dual agonist T0901317. Type of experiment: biochemical. How it is done:
(§1) While running the LanthaScreen™ TR-FRET Liver X Receptor Coactivator Assay, LXR alpha-LBD or LXR beta-LBD was added to ligand test compounds followed by addition of a mixture of a fluorescein-labelled coactivator peptide and terbium-conjugated anti-GST antibody. After an incubation period at room temperature, TR-FRET (time-resolved fluorescence resonance energy transfer) was measured using a filter-based instrument capable of TR-FRET, e.g. PerkinElmer Envision.
(In TR-FRET formats the signal depends on donor and acceptor labels being close together.)

For experiment [2], the target named is T2, glutathione-S-transferase (GST) tagged LXRalpha LBD (ligand binding domain) (Homo sapiens, UniProt Q13133).
T2 construct: purchased Invitrogen pv4655
T2 sequence (Q13133 209-447 limits assumed): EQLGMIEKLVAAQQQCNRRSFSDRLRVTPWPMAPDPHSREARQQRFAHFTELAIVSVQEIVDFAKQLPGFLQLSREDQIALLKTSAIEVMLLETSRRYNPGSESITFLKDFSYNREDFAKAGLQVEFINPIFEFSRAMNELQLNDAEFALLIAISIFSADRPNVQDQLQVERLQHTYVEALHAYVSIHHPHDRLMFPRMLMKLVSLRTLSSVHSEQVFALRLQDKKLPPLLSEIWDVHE
In words: biochemical. As to conditions: for EC50: LXR alpha IP; for EC50 / LXR alpha IP: potency (Inflection Point), compound-induced co-activator recruitment, TR-FRET. How it is done: as §1

Setting [3] is: read-out: LXR alpha actiivty at max dose, efficacy (% Emax) in relation to reference dual agonist T0901317.

Where two headings read alike, the source gives them in different places.

For `CN(C)C(=O)c1ccc(OCCCCC2CCN(C(=O)C(O)(c3cccc(-c4cnn(C)c4)c3)C(F)(F)F)CC2)cc1Cl` (single isomer, unassigned) [Example 3-19, (R or S)-2-chloro-N,N-dimethyl-4-(4-(1-(3,3,3-trifluoro-2-hydroxy-2-(3-(1-methyl-1H-pyrazol-4-yl)phenyl)propanoyl)piperidin-4-yl)butoxy)benzamide], the EC50 (usually the concentration that produces a half-maximal response) in experiment [1] came out at 0.124 µM; in experiment [2] it was 1.15 µM. For the same compound, the Emax amounted to 24% in experiment [1] and 25% in experiment [2] (setting [3]).
As for `CN(C)C(=O)c1ccc(OCCCC2CCN(C(=O)[C@](O)(c3ccccc3)C(F)(F)F)CC2)nc1Cl` (single isomer, unassigned) [Example 3-20], the values for the EC50 in experiment [1] and in experiment [2] were 0.025 µM and 2.29 µM, respectively. For the same compound, the values for the Emax in experiment [1] and in experiment [2] (setting [3]) were 74% and 28%, respectively.
On the same counts, the results for `COc1cccc([C@@](O)(C(=O)N2CCC(CCCCOc3ccc(C(=O)N(C)C)c(C#N)n3)CC2)C(F)(F)F)c1` (single isomer, unassigned) [Example 4-2, (R or S)-2-cyano-N,N-dimethyl-6-(4-(1-(3,3,3-trifluoro-2-hydroxy-2-(3-methoxyphenyl)propanoyl)piperidin-4-yl)butoxy) nicotinamide] are 0.012 µM, 0.488 µM, 81% and 28%.
As to `COc1cccc(C(O)(C(=O)N2CCC(CCCCOc3ccc(C(=O)N(C)C)c(OC)c3)CC2)C(F)(F)F)c1` (single isomer, unassigned) [Example 5-1, (R or S)-2-methoxy-N,N-dimethyl-4-(4-(1-(3,3,3-trifluoro-2-hydroxy-2-(3-methoxyphenyl)propanoyl)piperidin-4-yl)butoxy)benzamide], the EC50 in experiment [1] came out at 0.036 µM. Also, the Emax in experiment [1] was 66%; in experiment [2] (efficacy (% Emax) in relation to reference dual agonist T0901317, read-out: LXR alpha actiivty at max dose), 7%. The “LXR alpha IP” value in experiment [2] was “No IP”.
As for `O=C(c1ccc(OCCCCC2CCN(C(=O)C(O)(c3ccccc3)C(F)(F)F)CC2)cc1Cl)N1CCC1` (single isomer, unassigned) [Example 8-1, (R or S)-1-(4-(4-(4-(azetidine-1-carbonyl)-3-chlorophenoxy)butyl)piperidin-1-yl)-3,3,3-trifluoro-2-hydroxy-2-phenylpropan-1-one], the figures for the EC50 in experiment [1] and in experiment [2] were 0.033 µM and 0.328 µM, respectively. Also, the Emax in experiment [1] amounted to 55%; in experiment [2] (setting [3]), 10%.
For the compound `O=C(NC1CC1)c1ccc(OCCCCC2CCN(C(=O)[C@](O)(c3ccccc3)C(F)(F)F)CC2)cc1Cl` (single isomer, unassigned) [Example 8-2, (R or S)-2-chloro-N-cyclopropyl-4-(4-(1-(3,3,3-trifluoro-2-hydroxy-2-phenylpropanoyl)piperidin-4-yl)butoxy) benzamide], the EC50 in experiment [1] stood at 0.013 µM; in experiment [2], 0.527 µM. Also, the values for the Emax in experiment [1] and in experiment [2] (setting [3]) were 68% and 29%, respectively.
As for `O=C(c1ccc(OCCCCC2CCN(C(=O)[C@](O)(c3ccccc3)C(F)(F)F)CC2)cc1Cl)N1CC[C@@H](O)C1` (single isomer, unassigned) [Example 8-3, (R or S)-1-(4-(4-(3-chloro-4-((R or S)-3-hydroxy-pyrrolidine-1-carbonyl)phenoxy)butyl)piperidin-1-yl)-3,3,3-trifluoro-2-hydroxy-2-phenylpropan-1-one], the concentration for a half-maximal effect (EC50) was 0.017 µM in experiment [1] and 1.01 µM in experiment [2]. The Emax in experiment [1] stood at 39%; in experiment [2] (setting [3]), 26%.
`O=C(c1ccc(OCCCCC2CCN(C(=O)C(O)(c3ccccc3)C(F)(F)F)CC2)cc1Cl)N1CC(F)(F)C1` (single isomer, unassigned) [Example 8-4, (R or S)-1-(4-(4-(3-chloro-4-(3,3-difluoroazetidine-1-carbonyl)phenoxy)butyl)piperidin-1-yl)-3,3,3-trifluoro-2-hydroxy-2-phenylpropan-1-one]: the EC50 was 0.012 µM in experiment [1] and 0.048 µM in experiment [2]. Also, the Emax stood at 60% in experiment [1] and 18% in experiment [2] (setting [3]).
Regarding `CC1(C)CCN(C(=O)c2ccc(OCCCCC3CCN(C(=O)C(O)(c4ccccc4)C(F)(F)F)CC3)cc2Cl)C1` (single isomer, unassigned) [Example 8-5, (R or S)-1-(4-(4-(3-chloro-4-(3,3-dimethyl-pyrrolidine-1-carbonyl)phenoxy)butyl)piperidin-1-yl)-3,3,3-trifluoro-2-hydroxy-2-phenylpropan-1-one], in experiment [1], the EC50 was determined as 0.018 µM and the Emax stood at 27%. For the same compound, in experiment [2], the “LXR alpha IP” value is listed as “No IP”. Besides, the Emax in experiment [2] (setting [3]) is 1%.
For the compound `O=C(N[C@H]1CCOC1)c1ccc(OCCCCC2CCN(C(=O)[C@](O)(c3ccccc3)C(F)(F)F)CC2)cc1Cl` (single isomer, unassigned) [Example 8-6, 2-chloro-N-((S or R)-tetrahydrofuran-3-yl)-4-(4-(1-((R or S)-3,3,3-trifluoro-2-hydroxy-2-phenylpropanoyl)piperidin-4-yl)butoxy) benzamide], the 50% effective concentration (EC50) in experiment [1] turned out to be 0.086 µM; in experiment [2], 1.05 µM. For the same compound, the Emax came out at 75% in experiment [1] and 35% in experiment [2] (setting [3]).
For `O=C(c1ccc(OCCCCC2CCN(C(=O)[C@](O)(c3ccccc3)C(F)(F)F)CC2)cc1Cl)N1CCC[C@H]1CO` (single isomer, unassigned) [Example 8-7, (R or S)-1-(4-(4-(3-chloro-4-((S or R)-2-(hydroxymethyl)pyrrolidine-1-carbonyl)phenoxy)butyl)piperidin-1-yl)-3,3,3-trifluoro-2-hydroxy-2-phenylpropan-1-one], the EC50 was found to be 0.007 µM in experiment [1] and 0.131 µM in experiment [2]. Besides, the Emax came out at 48% in experiment [1] and 42% in experiment [2] (setting [3]).
As to `O=C(c1ccc(OCCCCC2CCN(C(=O)[C@](O)(c3ccccc3)C(F)(F)F)CC2)cc1Cl)N1CCC[C@@H]1CO` (single isomer, unassigned) [Example 8-8, (R or S)-1-(4-(4-(3-chloro-4-((R or S)-2-(hydroxymethyl)pyrrolidine-1-carbonyl)phenoxy)butyl)piperidin-1-yl)-3,3,3-trifluoro-2-hydroxy-2-phenylpropan-1-one], the 50% effective concentration (EC50) in experiment [1] was 0.021 µM; in experiment [2] it was 0.653 µM. Also, the Emax turned out to be 44% in experiment [1] and 27% in experiment [2] (setting [3]).
As for `O=C(NCC(F)F)c1ccc(OCCCCC2CCN(C(=O)[C@](O)(c3ccccc3)C(F)(F)F)CC2)cc1Cl` (single isomer, unassigned) [Example 8-9, (R or S)-2-chloro-N-(2,2-difluoroethyl)-4-(4-(1-(3,3,3-trifluoro-2-hydroxy-2-phenylpropanoyl)piperidin-4-yl)butoxy) benzamide], the EC50 was determined as 0.094 µM in experiment [1] and 0.856 µM in experiment [2]. Also, the figures for the Emax in experiment [1] and in experiment [2] (setting [3]) were 82% and 34%, respectively.
As to `CCNC(=O)c1ccc(OCCCCC2CCN(C(=O)[C@](O)(c3ccccc3)C(F)(F)F)CC2)cc1Cl` (single isomer, unassigned) [Example 8-10, (R or S)-2-chloro-N-ethyl-4-(4-(1-(3,3,3-trifluoro-2-hydroxy-2-phenylpropanoyl)piperidin-4-yl)butoxy) benzamide], the EC50 in experiment [1] turned out to be 0.03 µM; in experiment [2], 0.719 µM. Also, the Emax in experiment [1] is 76%; in experiment [2] (setting [3]), 28%.
On to `CC(C)(C)OC(=O)NC1CN(C(=O)c2ccc(OCCCCC3CCN(C(=O)[C@](O)(c4ccccc4)C(F)(F)F)CC3)cc2Cl)C1` (single isomer, unassigned) [Example 8-11, (R or S)-tert-butyl 1-(2-chloro-4-(4-(1-(3,3,3-trifluoro-2-hydroxy-2-phenylpropanoyl)piperidin-4-yl)butoxy)benzoyl) azetidin-3-ylcarbamate], for which the 50% effective concentration (EC50) turned out to be 0.018 µM in experiment [1] and 0.52 µM in experiment [2]. Further, the Emax was found to be 56% in experiment [1] and 32% in experiment [2] (setting [3]).
Turning to `CN(C(=O)c1ccc(OCCCCC2CCN(C(=O)[C@](O)(c3ccccc3)C(F)(F)F)CC2)cc1Cl)C1CC1` (single isomer, unassigned) [Example 8-12, (R or S)-2-chloro-N-cyclopropyl-N-methyl-4-(4-(1-(3,3,3-trifluoro-2-hydroxy-2-phenylpropanoyl)piperidin-4-yl)butoxy) benzamide], the EC50 in experiment [1] was determined as 0.016 µM; in experiment [2], 0.351 µM. In addition, the Emax in experiment [1] was determined as 64%; in experiment [2] (setting [3]) it was 7%.

These data come from US11655216B2 (priority 2016, dated 2023).
